Data published in ChEMBL document CHEMBL5154883, “Conformational Constrained 4-(1-Sulfonyl-3-indol)yl-2-phenylaminopyrimidine Derivatives as New Fourth-Generation Epidermal Growth Factor Receptor Inhibitors Targeting T790M/C797S Mutations” (J Med Chem, 2022).

Legend:
[1] = molecular target: Epidermal growth factor receptor (Homo sapiens, UniProt P00533, C797S/L858R/T790M); assay: Inhibition of EGFR L858R/T790M/C797S mutant (unknown origin) by ELISA
[2] = molecular target: Epidermal growth factor receptor (Homo sapiens, UniProt P00533); assay: Inhibition of wild type EGFR (unknown origin) by ELISA
Chain of Epidermal growth factor receptor (Homo sapiens, UniProt P00533) (P00533 whole entry): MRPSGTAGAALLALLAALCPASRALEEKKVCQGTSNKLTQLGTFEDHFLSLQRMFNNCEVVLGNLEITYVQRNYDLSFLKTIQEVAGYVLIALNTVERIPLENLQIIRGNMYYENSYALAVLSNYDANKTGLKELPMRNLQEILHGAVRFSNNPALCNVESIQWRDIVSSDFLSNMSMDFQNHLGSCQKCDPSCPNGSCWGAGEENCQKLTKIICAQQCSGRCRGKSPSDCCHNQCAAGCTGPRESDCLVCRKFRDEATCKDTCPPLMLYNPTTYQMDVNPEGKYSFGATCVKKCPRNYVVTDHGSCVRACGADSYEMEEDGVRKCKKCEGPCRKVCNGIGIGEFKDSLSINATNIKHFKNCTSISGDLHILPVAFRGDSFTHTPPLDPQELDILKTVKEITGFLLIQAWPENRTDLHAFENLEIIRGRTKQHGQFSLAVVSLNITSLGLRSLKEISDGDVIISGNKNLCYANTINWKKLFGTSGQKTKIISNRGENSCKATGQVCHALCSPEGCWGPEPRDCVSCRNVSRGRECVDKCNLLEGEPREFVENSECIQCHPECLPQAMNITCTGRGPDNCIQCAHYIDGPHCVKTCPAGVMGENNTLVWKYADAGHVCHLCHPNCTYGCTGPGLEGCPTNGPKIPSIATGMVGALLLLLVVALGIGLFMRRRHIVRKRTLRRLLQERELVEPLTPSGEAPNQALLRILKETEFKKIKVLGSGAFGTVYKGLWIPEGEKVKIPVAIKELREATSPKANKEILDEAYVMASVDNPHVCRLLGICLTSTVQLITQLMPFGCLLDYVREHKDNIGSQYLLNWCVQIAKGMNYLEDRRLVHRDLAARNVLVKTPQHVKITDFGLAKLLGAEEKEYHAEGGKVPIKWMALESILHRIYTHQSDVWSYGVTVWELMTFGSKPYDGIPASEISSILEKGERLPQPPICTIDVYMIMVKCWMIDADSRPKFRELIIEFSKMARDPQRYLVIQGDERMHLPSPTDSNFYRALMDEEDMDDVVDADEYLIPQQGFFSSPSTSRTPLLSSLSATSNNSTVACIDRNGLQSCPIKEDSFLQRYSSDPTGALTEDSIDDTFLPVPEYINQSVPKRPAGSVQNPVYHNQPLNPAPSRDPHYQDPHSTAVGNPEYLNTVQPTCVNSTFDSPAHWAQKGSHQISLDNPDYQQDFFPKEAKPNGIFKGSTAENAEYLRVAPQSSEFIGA

BaF3 [3] = assay: Antiproliferative activity against mouse BaF3 cells stably expressing EGFR L858R/T790M/C797S mutant assessed as inhibition of cell growth incubated for 72 hrs by CCK-8 assay; assay type: functional, cell-based; conditions: BaF3, 72 h
[4] = Cytotoxicity against mouse IL-3 dependent BaF3 cells assessed as inhibition of cell growth incubated for 72 hrs by CCK-8 assay; assay type: toxicity, cell-based; conditions: BaF3 cells (IL-3 dependent)
[5] = molecular target: Epidermal growth factor receptor (Homo sapiens, UniProt P00533, C797S/EX19DEL/T790M); assay: Inhibition of EGFR 19 del/T790M/C797S mutant (unknown origin) by ELISA
Chain of Epidermal growth factor receptor (Homo sapiens, UniProt P00533, C797S/EX19DEL/T790M) (P00533 whole entry, looked up, stated change not applied): as the sequence (P00533 whole entry) above

[6] = molecular target: Epidermal growth factor receptor (Homo sapiens, UniProt P00533, L858R/T790M); assay: Inhibition of EGFR L858R/T790M mutant (unknown origin) by ELISA
Chain of Epidermal growth factor receptor (Homo sapiens, UniProt P00533, L858R/T790M) (P00533 25-1210 T790M/L858R limits assumed): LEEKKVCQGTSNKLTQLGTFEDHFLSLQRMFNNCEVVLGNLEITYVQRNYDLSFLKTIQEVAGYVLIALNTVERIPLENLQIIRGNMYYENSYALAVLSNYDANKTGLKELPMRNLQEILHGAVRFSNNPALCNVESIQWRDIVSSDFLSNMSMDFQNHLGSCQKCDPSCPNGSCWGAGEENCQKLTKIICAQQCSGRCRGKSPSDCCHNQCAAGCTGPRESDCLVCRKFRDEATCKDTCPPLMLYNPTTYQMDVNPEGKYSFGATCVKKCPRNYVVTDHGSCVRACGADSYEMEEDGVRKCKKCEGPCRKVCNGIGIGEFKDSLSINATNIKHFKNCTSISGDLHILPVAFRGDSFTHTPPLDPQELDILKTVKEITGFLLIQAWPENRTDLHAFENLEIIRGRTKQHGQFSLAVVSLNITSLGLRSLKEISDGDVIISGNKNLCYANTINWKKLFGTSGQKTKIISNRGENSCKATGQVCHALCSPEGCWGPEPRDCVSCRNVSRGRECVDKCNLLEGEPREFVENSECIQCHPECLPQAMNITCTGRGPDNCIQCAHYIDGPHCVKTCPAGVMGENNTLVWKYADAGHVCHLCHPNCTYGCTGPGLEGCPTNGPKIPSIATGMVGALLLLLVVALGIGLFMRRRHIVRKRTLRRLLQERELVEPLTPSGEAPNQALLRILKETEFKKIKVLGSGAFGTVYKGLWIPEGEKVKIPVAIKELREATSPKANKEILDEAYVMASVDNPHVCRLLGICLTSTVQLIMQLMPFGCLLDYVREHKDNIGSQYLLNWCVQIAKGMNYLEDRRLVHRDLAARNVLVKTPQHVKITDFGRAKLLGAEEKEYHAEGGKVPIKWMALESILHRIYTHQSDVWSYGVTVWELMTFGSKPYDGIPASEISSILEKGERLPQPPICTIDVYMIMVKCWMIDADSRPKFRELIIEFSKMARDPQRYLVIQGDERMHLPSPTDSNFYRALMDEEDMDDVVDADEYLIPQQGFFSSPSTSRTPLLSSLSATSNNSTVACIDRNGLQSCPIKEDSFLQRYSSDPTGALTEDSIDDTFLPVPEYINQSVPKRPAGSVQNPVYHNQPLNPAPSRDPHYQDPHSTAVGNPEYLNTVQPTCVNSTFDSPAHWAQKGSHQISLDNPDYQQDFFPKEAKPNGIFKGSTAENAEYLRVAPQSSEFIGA

A-431 = assay: Antiproliferative activity against human A-431 cells harboring wild type EGFR assessed as reduction in cell viability incubated for 72 hrs by CCK-8 assay; assay type: functional, cell-based; conditions: A-431, 72 h
BaF3 [7] = assay: Antiproliferative activity against mouse BaF3 cells harboring EGFR 19 del/T790M/C797S mutant assessed as reduction in cell viability incubated for 72 hrs by CCK8 assay; assay type: functional, cell-based; conditions: BaF3, 72 h
PC-9 = assay: Antiproliferative activity against human osimertinib-resistant PC-9 cells harboring EGFR 19 del/T790M/C797S mutant assessed as reduction in cell viability incubated for 72 hrs by CCK-8 assay; assay type: functional, cell-based; conditions: PC-9, 72 h
[8] = tested on: Epidermal growth factor receptor (Homo sapiens), P04626+P00533+Q15303+P21860 [L858R,T790M,C797S]; assay: Inhibition of EGFR L858R/T790M/[…] mutant in mouse starved BaF3 cells assessed as reduction in EGFR phosphorylation incubated for 120 mins followed by EGF stimulation for 15 mins by Western blot analysis; assay type: cell-based; conditions: time 135.0 min, DDE = dose-dependent effect
BaF3 [9] = assay: Inhibition of EGFR 19del/T790M/[…] mutant in mouse starved BaF3 cells assessed as reduction in EGFR phosphorylation incubated for 120 mins followed by EGF stimulation for 15 mins by Western blot analysis; assay type: cell-based; conditions: time 135.0 min, DDE = dose-dependent effect
[10] = tested on: Epidermal growth factor receptor (Homo sapiens), P00533 [UNDEFINED MUTATION]; assay: Inhibition of EGFR 19 del/T790M/C797S mutant in human starved osimertinib-resistant PC-9 cells assessed as reduction in EGFR phosphorylation incubated for 120 mins followed by EGF stimulation for 15 mins by Western blot analysis; assay type: cell-based; conditions: time 135.0 min, DDE = dose-dependent effect
[11] = tested on: Epidermal growth factor receptor (Homo sapiens), P04626+P00533+Q15303+P21860 [L858R,T790M,C797S]; assay: Inhibition of EGFR L858R/T790M/[…] mutant in mouse starved BaF3 cells assessed as reduction in ERK phosphorylation incubated for 120 mins followed by EGF stimulation for 15 mins by Western blot analysis; assay type: cell-based; conditions: time 135.0 min, DDE = dose-dependent effect
BaF3 [12] = assay: Inhibition of EGFR 19del/T790M/[…] mutant in mouse starved BaF3 cells assessed as reduction in ERK phosphorylation incubated for 120 mins followed by EGF stimulation for 15 mins by Western blot analysis; assay type: cell-based; conditions: time 135.0 min, DDE = dose-dependent effect
[13] = tested on: Epidermal growth factor receptor (Homo sapiens), P00533 [UNDEFINED MUTATION]; assay: Inhibition of EGFR 19 del/T790M/C797S mutant in human starved osimertinib-resistant PC-9 cells assessed as reduction in ERK phosphorylation incubated for 120 mins followed by EGF stimulation for 15 mins by Western blot analysis; assay type: cell-based; conditions: time 135.0 min, DDE = dose-dependent effect

Chain of Epidermal growth factor receptor (Homo sapiens, UniProt P00533, C797S/L858R/T790M) (P00533 25-1210 T790M/C797S/L858R limits assumed): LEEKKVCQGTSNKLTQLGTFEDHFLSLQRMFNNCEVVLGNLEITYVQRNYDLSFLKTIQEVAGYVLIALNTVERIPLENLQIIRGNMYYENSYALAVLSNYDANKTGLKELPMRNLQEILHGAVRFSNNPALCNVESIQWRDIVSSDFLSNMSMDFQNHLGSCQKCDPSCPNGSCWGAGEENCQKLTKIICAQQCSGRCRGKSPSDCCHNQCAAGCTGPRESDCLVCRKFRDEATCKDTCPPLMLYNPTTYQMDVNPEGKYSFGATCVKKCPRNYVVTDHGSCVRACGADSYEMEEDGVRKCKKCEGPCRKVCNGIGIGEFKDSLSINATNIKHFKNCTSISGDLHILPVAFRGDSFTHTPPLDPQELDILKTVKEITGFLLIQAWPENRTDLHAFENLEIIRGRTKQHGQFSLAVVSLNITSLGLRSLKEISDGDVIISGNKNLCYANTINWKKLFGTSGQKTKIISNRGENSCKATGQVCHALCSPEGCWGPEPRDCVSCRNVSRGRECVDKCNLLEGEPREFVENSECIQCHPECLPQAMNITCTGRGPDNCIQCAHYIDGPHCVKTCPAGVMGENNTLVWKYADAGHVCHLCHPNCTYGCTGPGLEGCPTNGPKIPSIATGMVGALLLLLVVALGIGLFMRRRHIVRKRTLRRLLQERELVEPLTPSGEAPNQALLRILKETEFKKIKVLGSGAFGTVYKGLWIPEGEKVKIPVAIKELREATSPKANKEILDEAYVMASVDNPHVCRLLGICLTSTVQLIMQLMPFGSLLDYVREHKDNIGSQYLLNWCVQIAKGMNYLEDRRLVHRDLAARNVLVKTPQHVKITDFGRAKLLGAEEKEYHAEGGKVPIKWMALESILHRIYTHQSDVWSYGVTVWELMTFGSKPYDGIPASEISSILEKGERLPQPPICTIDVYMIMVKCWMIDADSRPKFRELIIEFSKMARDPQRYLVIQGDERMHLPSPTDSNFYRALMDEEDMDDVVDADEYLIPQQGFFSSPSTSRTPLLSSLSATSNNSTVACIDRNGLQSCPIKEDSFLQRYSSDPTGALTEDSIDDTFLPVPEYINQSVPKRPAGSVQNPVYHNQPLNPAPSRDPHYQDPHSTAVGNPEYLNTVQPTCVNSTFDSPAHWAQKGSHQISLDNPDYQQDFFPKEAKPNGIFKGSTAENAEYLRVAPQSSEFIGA

Compound	IC50 [1] [nM]	IC50 [2] [nM]	IC50 (BaF3 [3]) [nM]	IC50 at 72 h [4] [nM]	IC50 [5] [nM]	IC50 [6] [nM]	other results
CCS(=O)(=O)n1cc2c3ccc(cc31)OCCCCCCOc1cc(c(F)cc1N1CCOCC1)Nc1ncc(Cl)c-2n1	28	885	66	2560			
COc1cc(N2CCC(N3CCN(C)CC3)CC2)ccc1Nc1ncc(Cl)c(-c2cn(S(=O)(=O)C3CC3)c3ccccc23)n1	222	> 1000			33.3	32.6	
CCS(=O)(=O)n1cc2c3ccc(cc31)OCCCCCCOc1cc(c(Cl)cc1N1CCOCC1)Nc1ncc(Cl)c-2n1	57.8	> 1000	140	> 10000			
CCS(=O)(=O)n1cc2c3cc(ccc31)OCCCCCCOc1cc(ccc1N1CCOCC1)Nc1ncc(Cl)c-2n1	> 1000	> 1000					
CCS(=O)(=O)n1cc2c3cc(ccc31)OCCCCCOc1cc(ccc1N1CCOCC1)Nc1ncc(Cl)c-2n1	> 1000	> 1000					
CCS(=O)(=O)n1cc2c3ccc(cc31)OCCCCCCOc1cc(c(C3CCCC3)cc1N1CCOCC1)Nc1ncc(Cl)c-2n1	165	> 1000					
CCc1cc(Nc2ncc(Cl)c(-c3cn(S(=O)(=O)CC)c4ccccc34)n2)c(OC)cc1N1CCC(N2CCN(C)CC2)CC1	21.8	262			54.8	6.3	
COc1cc(N2CCC(N3CCN(C)CC3)CC2)ccc1Nc1ncc(Cl)c(-c2cn(S(C)(=O)=O)c3ccccc23)n1	41.9	> 1000			1.9	5.5	
CCS(=O)(=O)n1cc2c3ccc(cc31)OCCCCCOc1cc(ccc1N1CCOCC1)Nc1ncc(Cl)c-2n1	19	> 1000	168	349			
CCS(=O)(=O)n1cc2c3ccc(cc31)OCCCCCCOc1cc(ccc1N1CCOCC1)Nc1ncc(Cl)c-2n1	6.2	236	16	293			
CCS(=O)(=O)n1cc(-c2nc(Nc3cc(Cl)c(N4CCC(N5CCN(C)CC5)CC4)cc3OC)ncc2Cl)c2ccccc21	4.3	816	2610	4920	25.6	6.6	
CCS(=O)(=O)n1cc2c3ccc(cc31)OCCCCCCOc1cc(c(C)cc1N1CCOCC1)Nc1ncc(Cl)c-2n1	23.6	308	36	2080			IC50 (A-431): 2000 nM; IC50 (BaF3 [7]): 52 nM; IC50 (PC-9): 644 nM; inhibition [8]: Dde; inhibition (BaF3 [9]): Dde; inhibition [10]: Dde; inhibition [11]: Dde; inhibition (BaF3 [12]): Dde; inhibition [13]: Dde
C=CC(=O)Nc1cc(Nc2nccc(-c3cn(C)c4ccccc34)n2)c(OC)cc1N(C)CCN(C)C [OSIMERTINIB]			4270	3520			IC50 (A-431): […]; IC50 (BaF3 [7]): 6070 nM; IC50 (PC-9): 5430 nM
CCc1cc(N2CCOCC2)c2cc1Nc1ncc(Cl)c(n1)-c1cn(S(=O)(=O)CC)c3cc(ccc13)OCCCCCCO2	32.1	> 1000	142	4640			
CCS(=O)(=O)n1cc(-c2nc(Nc3cc(C)c(N4CCC(N5CCN(C)CC5)CC4)cc3OC)ncc2Cl)c2ccccc21	1.5	55.9			69.2	2.7	
CCS(=O)(=O)n1cc(-c2nc(Nc3ccc(N4CCC(N5CCN(C)CC5)CC4)c(Cl)c3)ncc2Cl)c2ccccc21	14.4	466			4.9	2.2	
CCS(=O)(=O)n1cc(-c2nc(Nc3cc(C(C)C)c(N4CCC(N5CCN(C)CC5)CC4)cc3OC)ncc2Cl)c2ccccc21	478	> 1000			116	74.3	
CCS(=O)(=O)n1cc2c3ccc(cc31)OCCCCCCOc1cc(c(C3CC3)cc1N1CCOCC1)Nc1ncc(Cl)c-2n1	56.4	> 1000	263	> 10000			
CCS(=O)(=O)n1cc2c3ccc(cc31)OCCCCCCCCOc1cc(ccc1N1CCOCC1)Nc1ncc(Cl)c-2n1	142	> 1000	450	2440			
CCS(=O)(=O)n1cc(-c2nc(Nc3ccc(N4CCC(N5CCN(C)CC5)CC4)c(Cl)c3OC)ncc2Cl)c2ccccc21	> 1000	> 1000			> 1000	> 1000	
CCS(=O)(=O)n1cc(-c2nc(Nc3cc(Cl)c(N4CCC(N5CCN(C)CC5)CC4)cc3C)ncc2Cl)c2ccccc21	1.6	547	410	1320	4.7	16.3	
CCS(=O)(=O)n1cc(-c2nc(Nc3ccc(N4CCC(N5CCN(C)CC5)CC4)cc3OC)ncc2Cl)c2ccccc21	34.8	> 1000			5.6	5.6	
CCS(=O)(=O)n1cc(-c2nc(Nc3cc(Cl)c(N4CCC(N5CCN(C)CC5)CC4)cc3OC(C)C)ncc2Cl)c2ccccc21	30.8	413	2770	> 10000	8.1	2.1	
CCS(=O)(=O)n1cc2c3ccc(cc31)OCCCCOc1cc(ccc1N1CCOCC1)Nc1ncc(Cl)c-2n1	> 1000	> 1000					
CCOc1cc(N2CCC(N3CCN(C)CC3)CC2)c(Cl)cc1Nc1ncc(Cl)c(-c2cn(S(=O)(=O)CC)c3ccccc23)n1	4.2	344	3150	7860	12	7.5	
CCS(=O)(=O)n1cc2c3ccc(cc31)OCCCCCCCOc1cc(ccc1N1CCOCC1)Nc1ncc(Cl)c-2n1	89.9	> 1000	180	773			
COc1cc(N2CCC(N3CCN(C)CC3)CC2)ccc1Nc1ncc(Cl)c(Nc2ccccc2P(C)(C)=O)n1 [BRIGATINIB]			610	1910			IC50 (A-431): 1360 nM; IC50 (BaF3 [7]): 492 nM; IC50 (PC-9): 1450 nM
COc1cc(N2CCC(N3CCN(C)CC3)CC2)ccc1Nc1ncc(Cl)c(-c2cn(C(C)=O)c3ccccc23)n1	77.8	> 1000			8.5	12.9	
COc1cc(N2CCC(N3CCN(C)CC3)CC2)ccc1Nc1ncc(Cl)c(-c2cn(S(=O)(=O)C(C)C)c3ccccc23)n1	145	> 1000			24.2	18	
COc1cc(N2CCC(N3CCN(C)CC3)CC2)ccc1Nc1ncc(Cl)c(-c2c[nH]c3ccccc23)n1	124	> 1000			22.6	15.6	
